How the values were obtained:
[1] = test system: EMT protein markers α-SMA, Vimentin, ZEB-1 and Slug; assay: EMT protein marker Western blot, TGF-β1-treated BT549 cells; assay type: cell-based, human; conditions: BT549, with TGF-β1; FIG. 7A
Procedure: The culture medium of the breast cancer cell line of Experimental Method 1 was replaced with a serum-free medium. Then, the cells were treated with 2 ng/mL of TGF-β1 and the compound of Preparation Example 6 and cultured for 20 to 24 hours. Thereafter, as described in Experimental Method 3, the expression level of the protein was measured using an antibody specific for the EMT-related protein.

[2] = test system: 4T1-luc orthotopic graft (fat pad, s.c.); assay: Survival rate in orthotopic animal model; assay type: in vivo, mouse; conditions: 20 mg/kg intraperitoneal once every 3 days, 6 times; compared to Vehicle; FIG. 8D
Text: (§1) After 4-week-old athymic nude mice (female) were purchased, only healthy mice were selected while the mice were adapted to the environment of the animal breeding room for 7 days. For identification of each mouse, the ears were marked using an ear punch. In addition, the breeding box was identified by attaching a mouse identification card describing the test number, test substance name, test item, receipt date, test date, test content, and the person in charge of the test. The environment of the animal breeding room was maintained at a temperature of 22±3° C., a relative humidity of 50±20%, 10 to 15 ventilations/hour, a 12-hour light (8:30 to 20:30)/dark cycle, and an illuminance of 150 to 300 lux. In addition, the animals were fed feed and drinking water during the breeding period, and quarantined during the acclimatization and testing periods.
The nude mice were anesthetized by inhalation with 2.5% isoflurane, and then injected with the mouse breast cancer cell line 4T1-luc of Experimental Method 1 by a sterile syringe. […]
During a period ranging from the day the mouse breast cancer cell line 4T1-luc was injected to the end of the experiment (the date of death), the volume of the tumor was measured once every 3 days and the survival rate of the animal model was checked every day. […]

[3] = test system: 4T1-luc orthotopic graft (fat pad, s.c.); assay: Tumor (lung) metastasis in orthotopic animal model, IVIS luminescence; assay type: in vivo, mouse; conditions: 20 mg/kg intraperitoneal at 2-day intervals; compared to Vehicle; FIG. 9A, 9B
Text: as §1, with “periods. […]” for “periods.”
During a period ranging from the day the mouse breast cancer cell line 4T1-luc cell line was injected to the end of the experiment (dissection date), lung metastasis of the cancer cell line was checked at intervals of 1 to 2 days. After the animal model was anesthetized by inhalation with 2.5% isoflurane, luminescence intensity was measured using an in-vivo imaging system (IVIS). […]

Q: What does the source list for COc1ccc(OC)c(/C=C/C(=O)c2ccc(NS(=O)(=O)c3ccc(Cl)cc3)cc2)c1 [Production Example 6, (E)-4-chloro-N-(4-(3-(2,5-dimethoxyphenyl)acryloyl)phenyl)benzenesulfonamide]?
A: Slug protein [1]: decreased; Vimentin protein [1]: decreased; ZEB-1 protein [1]: decreased; α-SMA protein [1]: decreased; survival rate [2]: significantly improved; luminescence intensity in the lung (4T1-luc lung metastasis) [3]: significantly decreased
